From PubChem BioAssay AID1963834 (Molecular Pharmacology Branch, DTP, NCI, 2024)

Tested on: 873145-292-R-J1-PDC complex spheroid viability
Assay: Anticancer human tumor 873145-292-R-J1-PDC patient-derived renal clear cell carcinoma cell line growth inhibition [POLQ]
Conditions: for IC50: curve of first compound; for viability, T/C: stronger effect = lower value
Experimental: Multicellular complex tumor spheroid response to Polymerase (POL) inhibitors (novobiocin, ART-558, RP6685) in combination with a variety of drugs and investigational agents in selected tumor cell lines
The POL inhibitors (novobiocin, ART-558, and RP6685) were evaluated both individually and in combination with standard of care and investigational anticancer small molecules within a complex spheroid model of solid tumors. . Complex spheroids include a stromal component modeled by human endothelial cells (HUVEC) and fibroblasts modeled by human mesenchymal stem cells (MSCs). The concentration ranges selected for each drug and investigational agent were based upon clinically achievable concentrations if the clinical Cmax of the agent was known.
Compounds. The drugs and investigational agents: novobiocin (NSC847541), ART-558 (NSC835418), RP-6685 (NSC848927), peposertib (NSC802822), ceralasertib (NSC780249), elimusertib (NSC800525), camonsertib (NSC841442), AZD-1390 (NSC803789), olaparib (NSC753686), talazoparib (NSC767125), rucaparib (NSC756644), sotorasib (NSC818433), MRTX-1133 (NSC836407), SN-38 (NSC673596), topotecan (NSC609699), epotoside (NSC141540), doxorubicin (NSC123127), gemcitabine (NSC613327), 5-fluorouracil (NSC19893), paclitaxel (NSC125973), vemurafenib (NSC761431), MSA-2 (NSC828583), SN-011 (NSC837082), adavosertib (NSC754352), prexasertib (NSC758257), carboplatin (NSC241240) and oxaliplatin (NSC266046), were obtained from the National Cancer Institute (NCI) Developmental Therapeutics Program Chemical Repository (21). The FDA-approved anticancer drug set is available from the Developmental Therapeutics Program at https://dtp.cancer.gov/organization/dscb/obtaining/. […] The stock solutions were prepared in dimethyl sulfoxide (DMSO, Sigma-Aldrich, St. Louis, MO, cat. D2650), except for the platinum compounds which were prepared in saline (Quality Biological, Gaithersburg, MD, cat. 114-055-101), at 800-fold the tested concentration and stored at -70 degrees C prior to their use. All drugs and investigational agents were tested over a range starting from a high concentration at or near the clinical Cmax and decreasing in half-log increments. If the clinical Cmax for an agent had not been determined, the highest concentration tested was 10 microM, except for SN-38, which was tested at a high concentration of 1 microM.
Cell Culture. All cells were maintained in an incubator at 37 degrees C and 5% CO2 with 95% humidity. The PDC lines were cultured according to standard operating procedures established by the NCI PDMR (https://pdmr.cancer.gov). Table 3 of the manuscript, lists the cell lines along with the number of the three cell types plated to form the mct-spheroids and media for tumor cell growth. After thawing, all PDC lines, except 997537-175-T-J1-PDC and 415267-285-R-J2-PDC, were cultured in Matrigel-coated flasks prepared with a working solution of 1X Ham's F-12 nutrient mix, without supplementation (Thermo Fisher Scientific, cat. 11765054), 100 U/mL penicillin-streptomycin (Thermo Fisher Scientific, cat. 15140122), and 2.5% Matrigel (Corning Inc., Corning, NY, cat. 354248) for the first three passages. The two PDC lines 997537-175-T-J1-PDC and 415267-285-R-J2-PDC were cultured on uncoated flasks. The 857933-349-R-J2-PDC line was cultured in 6C/Colon 1B media containing advanced DMEM/F-12 (Thermo Fisher Scientific, cat. 12634028), 10 mM HEPES (Thermo Fisher Scientific, cat. 15630080), 1X GlutaMAX supplement (Thermo Fisher Scientific, cat. 35050061), 0.1 mg/mL primocin (InvivoGen, San Diego, CA, cat. ant-pm-2), 10% defined fetal bovine serum, heat inactivated (HyClone Laboratories Inc., Logan, UT, cat. SH30070.03HI), 50% L-WRN conditioned media (ATCC, cat. CRL-3276), 1.25 mM N-Acetyl-L-cysteine (Sigma-Aldrich, cat. A9165), 10 mM nicotinamide (Sigma-Aldrich, cat. N0636), 1X B-27 supplement (Thermo Fisher Scientific, cat. 17504044), 1X N-2 supplement (Thermo Fisher Scientific, cat. […]
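Further: spheroids exposed to compounds for 7 days before viability readout.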
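Wherever viability, T/C is given: luminescence signal used as surrogate for viable cell content; 100% = DMSO vehicle control viability.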

Structure (SMILES): O=C(Nc1ccc(O)c(NS(=O)(=O)c2ccc(F)cc2)c1)c1ccc(-c2ccccc2)cc1 + Nc1ccc(C#CCN(C(=O)Cc2ncc(C(F)(F)F)cc2C(F)(F)F)c2ccc(F)cc2)nn1
- IC50 (second compound 0.0316 µM): > 10 µM
- IC50 (second compound 0.1 µM): > 10 µM
- IC50 (second compound 0.316 µM): > 10 µM
- IC50 (second compound 1 µM): > 10 µM
- IC50 (second compound 3.16 µM): > 10 µM
- IC50 (second compound 10 µM): > 10 µM
- viability, T/C (second compound 0.0316 µM, first compound 0.0316 µM): 98%
- viability, T/C (second compound 0.0316 µM, first compound 0.1 µM): 112%
- viability, T/C (second compound 0.0316 µM, first compound 0.316 µM): 113%
- viability, T/C (second compound 0.0316 µM, first compound 1 µM): 96.3%
- viability, T/C (second compound 0.0316 µM, first compound 3.16 µM): 110%
- viability, T/C (second compound 0.0316 µM, first compound 10 µM): 102%
- viability, T/C (second compound 0.1 µM, first compound 0.0316 µM): 113%
- viability, T/C (second compound 0.1 µM, first compound 0.1 µM): 113%
- viability, T/C (second compound 0.1 µM, first compound 0.316 µM): 95.9%
- viability, T/C (second compound 0.1 µM, first compound 1 µM): 101%
- viability, T/C (second compound 0.1 µM, first compound 3.16 µM): 107%
- viability, T/C (second compound 0.1 µM, first compound 10 µM): 98.9%
- viability, T/C (second compound 0.316 µM, first compound 0.0316 µM): 102%
- viability, T/C (second compound 0.316 µM, first compound 0.1 µM): 113%
- viability, T/C (second compound 0.316 µM, first compound 0.316 µM): 114%
- viability, T/C (second compound 0.316 µM, first compound 1 µM): 108%
- viability, T/C (second compound 0.316 µM, first compound 3.16 µM): 113%
- viability, T/C (second compound 0.316 µM, first compound 10 µM): 98.3%
- viability, T/C (second compound 1 µM, first compound 0.0316 µM): 112%
- viability, T/C (second compound 1 µM, first compound 0.1 µM): 100%
- viability, T/C (second compound 1 µM, first compound 0.316 µM): 101%
- viability, T/C (second compound 1 µM, first compound 1 µM): 98.2%
- viability, T/C (second compound 1 µM, first compound 3.16 µM): 100%
- viability, T/C (second compound 1 µM, first compound 10 µM): 105%
- viability, T/C (second compound 3.16 µM, first compound 0.0316 µM): 113%
- viability, T/C (second compound 3.16 µM, first compound 0.1 µM): 103%
- viability, T/C (second compound 3.16 µM, first compound 0.316 µM): 109%
- viability, T/C (second compound 3.16 µM, first compound 1 µM): 106%
- viability, T/C (second compound 3.16 µM, first compound 3.16 µM): 98.7%
- viability, T/C (second compound 3.16 µM, first compound 10 µM): 106%
- viability, T/C (second compound 10 µM, first compound 0.0316 µM): 106%
- viability, T/C (second compound 10 µM, first compound 0.1 µM): 112%
- viability, T/C (second compound 10 µM, first compound 0.316 µM): 105%
- viability, T/C (second compound 10 µM, first compound 1 µM): 117%
- viability, T/C (second compound 10 µM, first compound 3.16 µM): 112%
- viability, T/C (second compound 10 µM, first compound 10 µM): 93.9%
